# Assay results: PubChem BioAssay AID1918941 (Molecular Pharmacology Branch, DTP, NCI, 2023)
# Test system: SW 1271 complex spheroids, viability
# Experiment: Anticancer human tumor SW 1271 cell line growth inhibition [LSD1];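 note: spheroids exposed to agents for 7 days before luminescence read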;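 for viability, T/C: 100% = DMSO vehicle control viability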
# Settings: for IC50: curve of first compound; for viability, T/C: stronger effect = lower value
# In short: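 Complex spheroids of tumor cells with HUVEC and human MSCs, exposed to iadademstat combined with other agents. Each agent tested in half-log steps from near clinical Cmax (else 10 microM top), DMSO ≤0.25%.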
# [1] = second compound 0.1 µM, first compound 0.000316 µM
# [2] = second compound 0.1 µM, first compound 0.001 µM
# [3] = second compound 0.1 µM, first compound 0.00316 µM
# [4] = second compound 0.1 µM, first compound 0.01 µM
# [5] = second compound 0.1 µM, first compound 0.0316 µM
# [6] = second compound 0.1 µM, first compound 0.1 µM
# [7] = second compound 0.316 µM, first compound 0.000316 µM
# [8] = second compound 0.316 µM, first compound 0.001 µM
# [9] = second compound 0.316 µM, first compound 0.00316 µM
# [10] = second compound 0.316 µM, first compound 0.01 µM
# [11] = second compound 0.316 µM, first compound 0.0316 µM
# [12] = second compound 0.316 µM, first compound 0.1 µM
# [13] = second compound 1 µM, first compound 0.000316 µM
# [14] = second compound 1 µM, first compound 0.001 µM
# [15] = second compound 1 µM, first compound 0.00316 µM
# [16] = second compound 1 µM, first compound 0.01 µM
# [17] = second compound 1 µM, first compound 0.0316 µM
# [18] = second compound 1 µM, first compound 0.1 µM
# [19] = second compound 3.16 µM, first compound 0.000316 µM
# [20] = second compound 3.16 µM, first compound 0.001 µM
# [21] = second compound 3.16 µM, first compound 0.00316 µM
# [22] = second compound 3.16 µM, first compound 0.01 µM
# [23] = second compound 3.16 µM, first compound 0.0316 µM
# [24] = second compound 3.16 µM, first compound 0.1 µM
# [25] = second compound 10 µM, first compound 0.000316 µM
# [26] = second compound 10 µM, first compound 0.001 µM
# [27] = second compound 10 µM, first compound 0.00316 µM
# [28] = second compound 10 µM, first compound 0.01 µM
# [29] = second compound 10 µM, first compound 0.0316 µM
# [30] = second compound 10 µM, first compound 0.1 µM
# [31] = second compound 0.1 µM, first compound 0.00949 µM
# [32] = second compound 0.1 µM, first compound 0.03 µM
# [33] = second compound 0.1 µM, first compound 0.0949 µM
# [34] = second compound 0.1 µM, first compound 0.3 µM
# [35] = second compound 0.316 µM, first compound 0.00949 µM
# [36] = second compound 0.316 µM, first compound 0.03 µM
# [37] = second compound 0.316 µM, first compound 0.0949 µM
# [38] = second compound 0.316 µM, first compound 0.3 µM
# [39] = second compound 1 µM, first compound 0.00949 µM
# [40] = second compound 1 µM, first compound 0.03 µM
# [41] = second compound 1 µM, first compound 0.0949 µM
# [42] = second compound 1 µM, first compound 0.3 µM
# [43] = second compound 3.16 µM, first compound 0.00949 µM
# [44] = second compound 3.16 µM, first compound 0.03 µM
# [45] = second compound 3.16 µM, first compound 0.0949 µM
# [46] = second compound 3.16 µM, first compound 0.3 µM
# [47] = second compound 10 µM, first compound 0.00949 µM
# [48] = second compound 10 µM, first compound 0.03 µM
# [49] = second compound 10 µM, first compound 0.0949 µM
# [50] = second compound 10 µM, first compound 0.3 µM
compound,measurement,setting,value
CC(C)CC(NC(=O)C(Cc1ccccc1)NC(=O)c1cnccn1)B(O)O (stereo not given) + NC1CCC(NC2CC2c2ccccc2)CC1,IC50,second compound 0.1 µM,< 0.316 nM
same,IC50,second compound 0.316 µM,< 0.316 nM
same,IC50,second compound 1 µM,< 0.316 nM
same,IC50,second compound 3.16 µM,< 0.316 nM
same,IC50,second compound 10 µM,< 0.316 nM
same,"viability, T/C",[1],2.37%
same,"viability, T/C",[2],0.35%
same,"viability, T/C",[3],0.16%
same,"viability, T/C",[4],0.13%
same,"viability, T/C",[5],0.13%
same,"viability, T/C",[6],0.32%
same,"viability, T/C",[7],3.05%
same,"viability, T/C",[8],0.13%
same,"viability, T/C",[9],0.12%
same,"viability, T/C",[10],0.27%
same,"viability, T/C",[11],0.33%
same,"viability, T/C",[12],0.2%
same,"viability, T/C",[13],2.83%
same,"viability, T/C",[14],0.08%
same,"viability, T/C",[15],1.7%
same,"viability, T/C",[16],0.43%
same,"viability, T/C",[17],0.14%
same,"viability, T/C",[18],0.11%
same,"viability, T/C",[19],2.94%
same,"viability, T/C",[20],0.33%
same,"viability, T/C",[21],0.37%
same,"viability, T/C",[22],0.09%
same,"viability, T/C",[23],0.16%
same,"viability, T/C",[24],0.31%
same,"viability, T/C",[25],2.41%
same,"viability, T/C",[26],0.43%
same,"viability, T/C",[27],0.14%
same,"viability, T/C",[28],0.16%
same,"viability, T/C",[29],0.12%
same,"viability, T/C",[30],0.19%
CC(C)CC(NC(=O)CNC(=O)c1cc(Cl)ccc1Cl)B1OC(=O)CC(CC(=O)O)(C(=O)O)O1 (stereo not given) + NC1CCC(NC2CC2c2ccccc2)CC1,IC50,second compound 0.1 µM,4.95 nM
same,IC50,second compound 0.316 µM,4.94 nM
same,IC50,second compound 1 µM,5.09 nM
same,IC50,second compound 3.16 µM,5.19 nM
same,IC50,second compound 10 µM,5.23 nM
same,"viability, T/C",[1],93.8%
same,"viability, T/C",[2],88.8%
same,"viability, T/C",[3],78.4%
same,"viability, T/C",[4],5.55%
same,"viability, T/C",[5],0.31%
same,"viability, T/C",[6],0.44%
same,"viability, T/C",[7],92.7%
same,"viability, T/C",[8],90%
same,"viability, T/C",[9],78.1%
same,"viability, T/C",[10],5.75%
same,"viability, T/C",[11],0.88%
same,"viability, T/C",[12],0.13%
same,"viability, T/C",[13],78.5%
same,"viability, T/C",[14],80.4%
same,"viability, T/C",[15],83.8%
same,"viability, T/C",[16],6.04%
same,"viability, T/C",[17],0.34%
same,"viability, T/C",[18],0.23%
same,"viability, T/C",[19],93.7%
same,"viability, T/C",[20],93.9%
same,"viability, T/C",[21],81.4%
same,"viability, T/C",[22],8.6%
same,"viability, T/C",[23],0.51%
same,"viability, T/C",[24],0.36%
same,"viability, T/C",[25],85.3%
same,"viability, T/C",[26],79.2%
same,"viability, T/C",[27],86.2%
same,"viability, T/C",[28],6.72%
same,"viability, T/C",[29],0.65%
same,"viability, T/C",[30],0.38%
CCc1c2c(nc3ccc(O)cc13)-c1cc3c(c(=O)n1C2)COC(=O)[C@]3(O)CC + NC1CCC(NC2CC2c2ccccc2)CC1,IC50,second compound 0.1 µM,3.54 nM
same,IC50,second compound 0.316 µM,1.7 nM
same,IC50,second compound 1 µM,3.54 nM
same,IC50,second compound 3.16 µM,2.36 nM
same,IC50,second compound 10 µM,1.83 nM
same,"viability, T/C","second compound 0.1 µM, first compound 0.000949 µM",59.3%
same,"viability, T/C","second compound 0.1 µM, first compound 0.003 µM",53.9%
same,"viability, T/C",[31],26.8%
same,"viability, T/C",[32],8.08%
same,"viability, T/C",[33],5.77%
same,"viability, T/C",[34],5.6%
same,"viability, T/C","second compound 0.316 µM, first compound 0.000949 µM",57.5%
same,"viability, T/C","second compound 0.316 µM, first compound 0.003 µM",42.2%
same,"viability, T/C",[35],26%
same,"viability, T/C",[36],9.7%
same,"viability, T/C",[37],8.55%
same,"viability, T/C",[38],3.31%
same,"viability, T/C","second compound 1 µM, first compound 0.000949 µM",56.9%
same,"viability, T/C","second compound 1 µM, first compound 0.003 µM",52.8%
same,"viability, T/C",[39],31.5%
same,"viability, T/C",[40],8.11%
same,"viability, T/C",[41],5.83%
same,"viability, T/C",[42],3.46%
same,"viability, T/C","second compound 3.16 µM, first compound 0.000949 µM",57.8%
same,"viability, T/C","second compound 3.16 µM, first compound 0.003 µM",46.5%
same,"viability, T/C",[43],26.4%
same,"viability, T/C",[44],7.18%
same,"viability, T/C",[45],5.59%
same,"viability, T/C",[46],19.2%
same,"viability, T/C","second compound 10 µM, first compound 0.000949 µM",52.4%
same,"viability, T/C","second compound 10 µM, first compound 0.003 µM",48%
same,"viability, T/C",[47],27.9%
same,"viability, T/C",[48],7.16%
same,"viability, T/C",[49],5.27%
same,"viability, T/C",[50],3.36%
Nc1ccccc1NC(=O)c1ccc(CNC(=O)OCc2cccnc2)cc1 + NC1CCC(NC2CC2c2ccccc2)CC1,IC50,second compound 0.1 µM,158 nM
same,IC50,second compound 0.316 µM,150 nM
same,IC50,second compound 1 µM,153 nM
same,IC50,second compound 3.16 µM,152 nM
same,IC50,second compound 10 µM,147 nM
same,"viability, T/C",[31],89.1%
same,"viability, T/C",[32],78.6%
same,"viability, T/C",[33],64.7%
same,"viability, T/C",[34],33.4%
same,"viability, T/C","second compound 0.1 µM, first compound 0.949 µM",10.5%
same,"viability, T/C","second compound 0.1 µM, first compound 3 µM",5.83%
same,"viability, T/C",[35],93.6%
same,"viability, T/C",[36],69.4%
same,"viability, T/C",[37],68%
same,"viability, T/C",[38],31.2%
same,"viability, T/C","second compound 0.316 µM, first compound 0.949 µM",8.46%
same,"viability, T/C","second compound 0.316 µM, first compound 3 µM",5.39%
same,"viability, T/C",[39],101%
same,"viability, T/C",[40],73.5%
same,"viability, T/C",[41],67.8%
same,"viability, T/C",[42],35.9%
same,"viability, T/C","second compound 1 µM, first compound 0.949 µM",7.27%
same,"viability, T/C","second compound 1 µM, first compound 3 µM",8.95%
same,"viability, T/C",[43],95.5%
same,"viability, T/C",[44],85.1%
same,"viability, T/C",[45],62.3%
same,"viability, T/C",[46],32.9%
same,"viability, T/C","second compound 3.16 µM, first compound 0.949 µM",10.5%
same,"viability, T/C","second compound 3.16 µM, first compound 3 µM",4.3%
same,"viability, T/C",[47],95.8%
same,"viability, T/C",[48],92.6%
same,"viability, T/C",[49],61.6%
same,"viability, T/C",[50],29.2%
same,"viability, T/C","second compound 10 µM, first compound 0.949 µM",11.2%
same,"viability, T/C","second compound 10 µM, first compound 3 µM",7.03%
O=C(c1cc(Cc2n[nH]c(=O)c3ccccc23)ccc1F)N1CCN(C(=O)C2CC2)CC1 + NC1CCC(NC2CC2c2ccccc2)CC1,IC50,second compound 0.1 µM,> 10000 nM
same,IC50,second compound 0.316 µM,> 10000 nM
same,IC50,second compound 1 µM,> 10000 nM
same,IC50,second compound 3.16 µM,> 10000 nM
same,IC50,second compound 10 µM,> 10000 nM
same,"viability, T/C",[5],82%
same,"viability, T/C",[6],104%
same,"viability, T/C","second compound 0.1 µM, first compound 0.316 µM",95.3%
same,"viability, T/C","second compound 0.1 µM, first compound 1 µM",86.2%
same,"viability, T/C","second compound 0.1 µM, first compound 3.16 µM",82.6%
same,"viability, T/C","second compound 0.1 µM, first compound 10 µM",71.2%
same,"viability, T/C",[11],85.7%
same,"viability, T/C",[12],91.9%
same,"viability, T/C","second compound 0.316 µM, first compound 0.316 µM",97.3%
same,"viability, T/C","second compound 0.316 µM, first compound 1 µM",87.7%
same,"viability, T/C","second compound 0.316 µM, first compound 3.16 µM",81.9%
same,"viability, T/C","second compound 0.316 µM, first compound 10 µM",63.8%
same,"viability, T/C",[17],82.7%
same,"viability, T/C",[18],105%
same,"viability, T/C","second compound 1 µM, first compound 0.316 µM",91.5%
same,"viability, T/C","second compound 1 µM, first compound 1 µM",96.6%
same,"viability, T/C","second compound 1 µM, first compound 3.16 µM",79.8%
same,"viability, T/C","second compound 1 µM, first compound 10 µM",71.9%
same,"viability, T/C",[23],81.6%
same,"viability, T/C",[24],94.7%
same,"viability, T/C","second compound 3.16 µM, first compound 0.316 µM",101%
same,"viability, T/C","second compound 3.16 µM, first compound 1 µM",83.4%
same,"viability, T/C","second compound 3.16 µM, first compound 3.16 µM",84%
same,"viability, T/C","second compound 3.16 µM, first compound 10 µM",76.6%
same,"viability, T/C",[29],93.8%
same,"viability, T/C",[30],95.9%
same,"viability, T/C","second compound 10 µM, first compound 0.316 µM",94.5%
same,"viability, T/C","second compound 10 µM, first compound 1 µM",84.2%
same,"viability, T/C","second compound 10 µM, first compound 3.16 µM",78.1%
same,"viability, T/C","second compound 10 µM, first compound 10 µM",66.9%
